The term IC50 denotes the concentration needed to halve the response being measured. In general, inhibition refers to the share of the control response that was lost under treatment.

Among the data in article PMC10745768, “Stereoselective Synthesis and Antiproliferative Activity of Steviol-Based Diterpene 1,3-Aminoalcohol Regioisomers” (Molecules, 2023) are IC50 and inhibition values, retold here.

For experiment [1], the system named is cancer cells and fibroblasts (HeLa, SiHa, MCF-7, MDA-MB-231, A2780, NIH/3T3). Description: MTT antiproliferative assay, cancer cells and fibroblasts. In kind it is cell-based. Conditions: Fibroblast; range over all six cell lines; read-out: IC50 values against both the cancer cells and fibroblasts. On the procedure: The in vitro anticancer effects of the presented compounds were assessed using the standard MTT [3-(4,5-dimethylthiazol2-yl)-2,5-diphenyltetrazolium bromide] assay on the following human cancer cell lines: cervical (HeLa and SiHa), breast (MCF-7 and MDA-MB-231) and ovarian cancer (A2780). The selectivity of the tested compounds was determined on murine embryonal fibroblast cells (NIH/3T3). The utilised cell lines were purchased from the European Collection of Cell Cultures (Salisbury, UK). The cells were cultivated in Eagle’s minimal essential medium supplemented with 10% fetal bovine serum, 1% non-essential amino acids and 1% antibiotic-antimycotic complex (penicillin, streptomycin, amphotericin B) at 37 °C in a humidified atmosphere containing 5% CO2. All media and supplements were purchased from Lonza Group Ltd. (Basel, Switzerland). The cancer cells were seeded into 96-well plates (5000 cells/well) and incubated overnight, and the test compounds were applied in two different concentrations (10 µM and 30 µM) and incubated for another 72 h under cell-culturing conditions. […] After 72 h, 20 µL of the 5 mg/mL MTT solution was added to each well, and the plates were incubated for 4 h. […] The absorbances were measured at 545 nm using a microplate reader (SPECTROStar Nano, BMG Labtech, Offenburg, Germany). […] The IC50 values were calculated using sigmoid curve fitting. […]
In general terms: Formazan colour is commonly taken as a measure of viable cells.

The test system of experiment [2] is A2780 cells. Put plainly: MTT antiproliferative assay, A2780. In kind it is cell-based. The settings on record: Homo sapiens; for IC50: A2780, 72 h, read-out: calculated IC50; for inhibition at 10 µM: A2780, 10 μM; for inhibition at 10 µM / inhibition at 30 µM: 72 h, read-out: Growth inhibition (%) ± SEM; for inhibition at 30 µM: A2780, 30 μM. The gist of the method: (§1)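 MTT viability readout (545 nm) following 72 h compound treatment at 10 µM and 30 µM; cisplatin as reference cytotoxic agent.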

For experiment [3], the system named is MCF-7 cells. Description: MTT antiproliferative assay, MCF-7. The settings on record: Homo sapiens, MCF7; for inhibition at 10 µM: MCF-7, 10 μM; for inhibition at 10 µM / inhibition at 30 µM: 72 h, read-out: Growth inhibition (%) ± SEM; for inhibition at 30 µM: MCF-7, 30 μM; for IC50: MCF-7, 72 h, read-out: calculated IC50. Format: cell-based. In outline:
as §1

The test system of experiment [4] is MDA-MB-231 cells. Put plainly: MTT antiproliferative assay, MDA-MB-231. Format: cell-based. The settings on record: Homo sapiens; for IC50: MDA-MB-231, 72 h, read-out: calculated IC50; for inhibition at 10 µM: MDA-MB-231, 10 μM; for inhibition at 10 µM / inhibition at 30 µM: 72 h, read-out: Growth inhibition (%) ± SEM; for inhibition at 30 µM: MDA-MB-231, 30 μM. In outline:
as §1

The subject of experiment [5] is NIH/3T3 fibroblast cells. Description: MTT assay on non-malignant fibroblasts (selectivity). Format: cell-based, murine. The settings on record: Mus musculus, NIH3T3; for inhibition at 10 µM: NIH/3T3, 10 μM; for inhibition at 10 µM / inhibition at 30 µM: 72 h, read-out: Growth inhibition (%) ± SEM; for inhibition at 30 µM: NIH/3T3, 30 μM; for IC50: NIH/3T3, 72 h, read-out: calculated IC50. The gist of the method: as §1

The test system of experiment [6] is HeLa cells. Description: MTT antiproliferative assay, HeLa. Conditions: Homo sapiens, 72 h; for inhibition at 10 µM / inhibition at 30 µM: read-out: Growth inhibition (%) ± SEM; for IC50: read-out: calculated IC50. In kind it is cell-based. In outline: as §1
Experiment [7] relates to SiHa cells. Put plainly: MTT antiproliferative assay, SiHa. Format: cell-based. The settings on record: Homo sapiens, 72 h; for inhibition at 10 µM / inhibition at 30 µM: read-out: Growth inhibition (%) ± SEM; for IC50: read-out: calculated IC50. The gist of the method: as §1

On to `COC(=O)[C@]1(C)CCC[C@@]2(C)[C@@H]3CC[C@@]4(CNCc5ccc(OC)cc5)C[C@]3(CC[C@@H]21)C[C@H]4O` [Compound 32, (4R,4aS,6aR,8R,9S,11aR,11bS)-Methyl 8-hydroxy-9-(((4-methoxybenzyl)amino)methyl)-4,11b-dimethyltetradecahydro-6a,9-methanocyclohepta[a]naphthalene-4-carboxylate], for which the IC50 in experiment [1] was 1.04 to 5.77 µM; in experiment [2] it was 3.78 µM; in experiment [3] it was 1.04 µM; in experiment [4], 2.3 µM; in experiment [5] it was 3.71 µM; in experiment [6], 3.09 µM. Further, the IC50 in experiment [7] was 5.77 µM. Besides, the inhibition at 10 µM in experiment [2] is 97.94 ± 0.6%; in experiment [3], 99.59 ± 0.13%; in experiment [4] it was 97.12 ± 0.6%; in experiment [5], 96.93 ± 0.92%; in experiment [6] it was 97.09 ± 0.79%; in experiment [7], 95.6 ± 2.12%. Also, the inhibition at 30 µM in experiment [2] was 98.01 ± 0.6%; in experiment [3], 99.88 ± 0.23%; in experiment [4] it was 96.3 ± 1.02%; in experiment [5], 96.6 ± 1.05%; in experiment [6] it was 97.18 ± 0.76%; in experiment [7], 96.5 ± 1.09%.
As to `COC(=O)[C@]1(C)CCC[C@@]2(C)[C@@H]3CC[C@@]4(CNCc5ccc(F)cc5)C[C@]3(CC[C@@H]21)C[C@H]4O` [Compound 23, (4R,4aS,6aR,8R,9S,11aR,11bS)-Methyl 9-(((4-fluorobenzyl)amino)methyl)-8-hydroxy-4,11b-dimethyltetradecahydro-6a,9-methanocyclohepta[a]naphthalene-4-carboxylate], the IC50 in experiment [1] is 1.59 to 5.15 µM; in experiment [2], 4.39 µM; in experiment [3] it was 1.59 µM; in experiment [4], 3.28 µM; in experiment [5], 5.15 µM; in experiment [6], 5.07 µM. In experiment [7], the IC50 was 4.41 µM. In addition, the inhibition at 10 µM in experiment [2] came out at 80 ± 1.6%; in experiment [3], 95.81 ± 0.84%; in experiment [4] it was 92.99 ± 0.39%; in experiment [5] it was 81.8 ± 3.07%; in experiment [6], 70.1 ± 1.97%; in experiment [7], 68.1 ± 1.85%. Also, the inhibition at 30 µM in experiment [2] was 95.71 ± 0.58%; in experiment [3], 95.3 ± 1.05%; in experiment [4], 91.4 ± 0.39%; in experiment [5] it was 93.62 ± 0.77%; in experiment [6] it was 90.41 ± 0.78%; in experiment [7], 80.5 ± 3.16%.
